From US7034048B2, “Gastrin and cholecystokinin receptor ligands (III)” (James Black Foundation Limited, priority 2000, dated 2006)

These molecules were tested against T1, gastrin (CCK2) receptors (Rattus norvegicus, UniProt P30553) (assay: immature rat stomach assay, gastrin (CCK2) antagonist activity against pentagastrin-stimulated acid secretion). Conditions: isolated immature rat stomach, 60 min incubation, then cumulative pentagastrin dose-response curves, read-out: Rat Stomach pKB (converted).
T1 construct: The stomach was excised and flushed with ca. 1 ml of unbuffered physiological saline solution; from tissue; host or cells: isolated, lumen-perfused stomach of immature rats (33-50 g, ca. 21 days old)
T1 sequence (P30553 1-452): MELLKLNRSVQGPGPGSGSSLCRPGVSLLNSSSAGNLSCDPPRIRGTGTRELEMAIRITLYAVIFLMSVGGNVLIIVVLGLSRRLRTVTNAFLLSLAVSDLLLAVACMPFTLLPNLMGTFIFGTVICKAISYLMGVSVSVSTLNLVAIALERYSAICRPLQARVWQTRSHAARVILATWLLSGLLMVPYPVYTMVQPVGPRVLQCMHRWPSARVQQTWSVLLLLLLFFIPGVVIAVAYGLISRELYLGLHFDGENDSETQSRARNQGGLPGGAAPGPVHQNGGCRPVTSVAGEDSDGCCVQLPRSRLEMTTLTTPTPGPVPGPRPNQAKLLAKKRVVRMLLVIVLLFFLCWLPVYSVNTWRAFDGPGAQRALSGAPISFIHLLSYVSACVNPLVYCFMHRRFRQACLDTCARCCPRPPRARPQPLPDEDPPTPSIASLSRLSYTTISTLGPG
Experimental: The compounds of the examples were tested for gastrin (CCK2) antagonist activity in an immature rat stomach assay. The procedure was as follows: The oesophagus of immature rats (33–50 g, ca. 21 days old) was ligated at the level of the cardiac sphincter and the duodenal sphincter was cannulated. The stomach was excised and flushed with ca. 1 ml of unbuffered physiological saline solution. The fundus was punctured and cannulated. A further 4–5 ml of unbuffered solution was flushed through the stomach to ensure the preparation was not leaking. The stomach was lowered into a jacketed organ bath containing 40 ml of buffered solution containing 3×10^−8 M 5-methylfurmethide, maintained at 37° and gassed vigorously with 95% O2/5% CO2. The stomach was continuously perfused at a rate of 1 ml min^−1 with unbuffered solution gassed with 100% O2 with the perfusate passing over an internally referenced pH-electrode fixed 12 cm above the stomach. After 120 min of stabilisation the drugs were added directly to the serosal solution in the organ bath and after a further 60 min cumulative pentagastrin dose-response curves were started. Changes in acid secretion were monitored and the curves analysed according to Black et al., Br. J. Pharmacol. 1985, 86, 581.

In order of rising Kb:
1. O=C(O)c1cccc2[nH]c(-c3nc(C4CCCCC4)[nH]c3COC34CC5CC(CC(C5)C3)C4)nc12 [Example 4, 2-[5-(Adamantan-1-yloxymethyl)-2-cyclohexyl-1H-imidazole-4-yl]-1H-benzoimidazole-4-carboxylic acid]  0.372 µM
2. O=C(O)c1ccc2nc(-c3nc(C4CCCCC4)[nH]c3COC34CC5CC(CC(C5)C3)C4)oc2c1 [Example 2, 2-[5-(Adamantan-1-yloxymethyl)-2-cyclohexyl-1H-imidazole-4-yl]-benzooxazole-6-carboxylic acid]  1.62 µM
3. O=C(O)Cc1ccc2oc(-c3nc(C4CCCCC4)[nH]c3COC34CC5CC(CC(C5)C3)C4)nc2c1 [Example 5, {2-[5-(Adamantan-1-yloxymethyl)-2-cyclohexyl-1H-imidazole-4-yl]-benzooxazol-5-yl}-acetic acid]  2.04 µM
4. O=C(O)c1ccc2oc(-c3nc(C4CCCCC4)[nH]c3COC34CC5CC(CC(C5)C3)C4)nc2c1 [Example 1, 2-[5-(Adamantan-1-yloxymethyl)-2-cyclohexyl-1H-imidazole-4-yl]-benzooxazole-5-carboxylic acid]  3.31 µM
5. O=C(O)c1ccc2[nH]c(-c3nc(C4CCCCC4)[nH]c3COC34CC5CC(CC(C5)C3)C4)nc2c1 [Example 3, 2-[5-(Adamantan-1-yloxymethyl)-2-cyclohexyl-1H-imidazole-4-yl]-1H-benzoimidazole-5-carboxylic acid]  3.39 µM
